{"source": "patent US20240336658A1", "about": "“CYCLIC PEPTIDE AND PREPARATION METHOD AND USE THEREOF” (HANGZHOU HUIBO SCIENCE AND TECHNOLOGY CO., LTD, priority 2021, published 2024)", "key": {"[1]": {"tested_on": "full-thickness skin defect wound surfaces", "experiment": "Effect of Hst1-MAD cyclic peptide on wound repair in mice (Example 22): healing rate, histology, immunohistochemistry, immunofluorescence double staining, Western Blot", "assay_type": "in vivo, C57 BL/6 mice", "description": "[…]. 36 healthy male special pathogen-free grade C57 BL/6 mice (purchased from Guangdong Experimental Animal Center) of 6-8 weeks old and weighing 22-28 g. They were intraperitoneally injected with 5 ml/kg of 1% pentobarbital sodium for anesthesia. After the mice had no corneal reflex, the hair on their backs was carefully removed and disinfected with alcohol. […] full-thickness skin defect wound surfaces were prepared on the back of each mouse by using a circular skin punch. […]. Each wound surface was added with 0.5 ml of four drugs respectively, and administration was conducted every day until the wound surfaces of the experimental groups healed. Photographs were taken on days 0, 3, 5, and 10 after surgery, and wound tissues were sampled on days 3, 5, and 10 for subsequent pathological staining.\nwas observed and photographed with a digital camera (see FIG. 19), and the wound healing rate was calculated (see FIG. 20). Wound healing rate=(wound area immediately after injury−unhealed wound area at each time point)÷wound area immediately after injury×100%.\nThe wound specimens were fixed in 4% paraformaldehyde for 48 hours, rinsed with tap water for 10 minutes, dehydrated with graded ethanol, permeabilized with xylene, and embedded in paraffin to prepare 4 μm thick sections. Some sections were taken and subjected to HE staining to detect an epidermal thickness and subjected to Masson staining to detect newly grown collagen. Through hematoxylin-cosin staining (HE), the effects of the four groups of drugs on newly grown epidermal at the wound surface on day 10 were evaluated (FIGS. 21 and 22). Through Masson staining, the effects of the four groups of drugs on newly grown collagen at the wound surface on days 5 and 10 were evaluated (FIGS. 23 and 24). 5 sections were taken from each mouse, and 5 fields of view were selected for each section. Data analysis was performed using the software Image-pro Plus.\nand rehydrated, subjected to antigen thermal repair with a 0.1 mol/L citric acid buffer (with a pH value of 6.0) for 20 minutes, treated with hydrogen peroxide with a volume fraction of 10% for inactivation of endogenous peroxidase for 10 minutes, and blocked with 50 g/L of bovine serum albumin for 2 hours. It was added with a rabbit anti-mouse CD31 primary antibody (with a dilution ratio of 1:300) and a mouse anti-VEGF (with a dilution ratio of 1:100), incubated overnight at 4° C., and washed with PBS. It was rewarmed for 1 hour, washed with PBS, added dropwise with ready-to-use biotinylated goat anti-mouse and goat anti-rabbit IgG secondary antibodies, incubated for 2 hours, and washed with PBS. It was subjected to DAB development, hematoxylin counterstaining. gradient ethanol dehydration, xylene permeabilization, and resin blocking. 5 sections were taken from each mouse, and 5 fields of view were selected for each section. The sections were observed under a 400× inverted fluorescence microscope, and analyzed for the number of CD31-positive blood vessels (see FIG. 25) and VEGF expression amounts (see FIG. 26) by using Image-pro Plus software.\nThe specific steps were: the previous steps were the same as those of 1.3.3, and they were incubated with the antibodies MHCII (orb101661; 1:500; Biorbyt Biotechnology Co., Ltd., Wuhan, CN), CD11c (97585; 1:200; Cell Signaling Technology Inc., Boston, MA), CD68 (GB11067; 1:300; Servicebio Inc.), CD80 (GB11034; 1:300; Servicebio Inc.), CD206 (GB11062; 1:500; Servicebio Inc.), claudin1 (37-4900; 1:100; Thermo Fisher Scientific Co., Ltd, Shanghai, CN) and claudin2 (32-5600; 1:200; Thermo Fisher Scientific Co., Ltd.) at 4° C. overnight. The fluorescent-labeled secondary antibodies were incubated at room temperature for 1 h, followed by 4′,6-diamidino-2′-phenylindole (DAPI) (G1012; Google Biotechnology Co., Ltd., Wuhan, CN). The stained sections were photographed by using a fluorescence microscope (Nikon Eclipse TI-SR. Tokyo, Japan). […]"}, "fibroblasts (NIH/3T3)": {"tested_on": "fibroblasts (NIH/3T3)", "experiment": "Scratch experiment, Hst1-MAD cyclic peptides (Example 23)", "assay_type": "cell-based", "conditions": "dose required to achieve the same pharmaceutical effect in the scratch experiment", "description": "In this example, the propargylglycine-Hst1-MAD cyclic peptide, the homopropargylglycine-Hst1-MAD cyclic peptide, the dihomopropargylglycine-Hst1-MAD cyclic peptide and the linear Hst1 prepared in Examples 13, 14, and 15, and the Hst1-MAD head-to-tail cyclic peptide or N-terminal and C-terminal cyclized peptide prepared by the amide bond cyclization method provided by the literature of for example Sortase A as a tool for high-yield histatin cyclization, Jan G. M. Bolscher, The FASEB Journal. Research Communication, were adopted respectively, the reaction time was recorded, the yield of the reaction product was detected by HPLC, the proportion of side reactions in the reaction product was calculated, and activity comparison was performed. The activity comparison method was to calculate the dose required to achieve the same pharmaceutical effect through a scratch experiment. […] After 12 hours and 24 hours of culture, the scratched area of each group was calculated by using imageJ (Rawak Software, Inc. Germany) software, and the scratch area at 0 hour was an initial scratch area. The scratch healing rate was calculated in the following manner: W % (scratch healing rate)=(W0−Wt)/W0×100%, where W0=an initial scratch area, and Wt=a remaining scratch area; and the results were as shown in Table 14."}}, "note": "Entries after “also recorded” stand apart in the source; their conditions may differ. Like-named read-outs stand apart in the source and are kept apart here.", "data": [{"substance": "Cyclized Hst1 prepared by Sortase A enzymatic method", "values": [{"measurement": "ring closure, conversion", "setting": "enzyme bond, Sortase A", "result": 90, "unit": "%"}]}, {"substance": "Hst1 cyclized through amide bonds", "values": [{"measurement": "ring closure, conversion", "setting": "amide bond", "result": 3, "unit": "%"}]}, {"substance": "Linear Hst1-MAD: shortest sequence that maintains Hst1 activity, 20th to 32nd amino acids of Hst1, SEQ ID NO.13 (SHREFPFYGDYGS)", "values": [{"measurement": "inhibitory effects on inflammatory factors IL-6 and MIP-1β", "setting": "[1]; Western Blot, 1 μM Click-Hst1-MAD, 1 μM Hst1-MAD", "result": "significantly better than those of the control group and the 10 μM Histatin1 group"}, {"measurement": "expression levels of Nrf2 and HO-1", "setting": "[1]; day 3 after surgery, Western Blot, 1 μM Click-Hst1-MAD, 1 μM Hst1-MAD", "result": "increased compared with those in the Control group"}, {"measurement": "VEGF expression amount", "setting": "[1]; day 5, 1 μM Click-Hst1-MAD, 10 μM Histatin1, 1 μM Hst1-MAD compared with each other", "result": "comparable"}, {"measurement": "expression levels of the dermal collagen", "setting": "[1]; day 5, 1 μM Hst1-MAD and 10 μM Histatin1 compared with each other", "result": "equivalent"}, {"measurement": "epidermal thickness at the wound surface", "setting": "[1]; day 10, HE staining, 1 μM Click-Hst1-MAD, 1 μM Hst1-MAD, 10 μM Histatin1", "result": "thinnest epidermal thickness"}, {"measurement": "Claudin1 expression intensity", "setting": "[1]; day 10, immunofluorescence, 1 μM Click-Hst1-MAD, 1 μM Hst1-MAD, 10 μM Histatin1", "result": "equivalent expression level of Claudin1"}, {"measurement": "healing rate of the wound surface", "setting": "[1]; days 3 and 5, 1 μM Click-Hst1-MAD, 1 μM Hst1-MAD linear peptide, 10 μM Histatin1", "result": "equivalent to that of the 10 μM Histatin linear peptide group"}, {"measurement": "number of dendritic cells (MHCII+ and CD11c+)", "setting": "[1]; days 3 and 5 evaluated, 1 μM Click-Hst1-MAD, 1 μM Hst1-MAD, 10 μM Histatin1", "result": "slightly lower than that of the 10 μM Histatin1 group; also recorded: significantly higher than that in the Control group"}, {"measurement": "number of M1 macrophages (CD68+ and CD80+)", "setting": "[1]; days 3 and 5 evaluated, 1 μM Hst1-MAD, 10 μM Histatin1", "result": "slightly higher than that in the 10 μM Histatin1 group; also recorded: lower than that in the Control group"}, {"measurement": "number of CD31-positive blood vessels", "setting": "[1]; days 5 and 10, immunohistochemistry, 1 μM Click-Hst1-MAD, 1 μM Hst1-MAD, 10 μM Histatin1", "result": "significantly higher than that in the Control group"}, {"measurement": "Dosage of agents required for scratch test", "setting": "fibroblasts (NIH/3T3)", "result": 8, "unit": "µM"}]}]}
